From PubChem BioAssay (NCI)
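96-well plates; 48 h exposure; 5 concentrations. Endpoints by linear interpolation between flanking doses. Not reached: highest tested concentration assigned. The concentration for full growth arrest is given as TGI.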 *1 amine or outer side, *2 acyl side, *3 side chain or, on linkers, in order; H or OH if unused. Where a SMILES comes first, the peptide text is derived from it. [ ]: non-standard residue; d: D form. The star is where a group is joined. ξ: configuration not given here. NMeY = CN[C@@H](Cc1ccc(O)cc1)C(=O)O; Ethylenediamine = C(CN[*:2])N[*:1]; ξNMeL = CNC(CC(C)C)C(=O)O; Cbz = O=C(OCc1ccccc1)*; Lac = C[C@H](O)C(=O)O; ξA = CC(N)C(=O)O

Columns and labels:
Assay in all cases: NCI anticancer screen, dose series, 48 h
UACC-62 melanoma = system: UACC-62 melanoma
MDA-N = system: MDA-N
BT-549 breast = system: BT-549 breast
SK-MEL-5 melanoma = system: SK-MEL-5 melanoma
UO-31 renal = system: UO-31 renal
KM12 colon = system: KM12 colon
NCI/ADR-RES ovarian = system: NCI/ADR-RES ovarian
HL-60(TB) leukemia = system: HL-60(TB) leukemia
OVCAR-4 ovarian = system: OVCAR-4 ovarian
U251 CNS = system: U251 CNS
NCI-H226 lung = system: NCI-H226 lung
NCI-H460 lung = system: NCI-H460 lung
SK-OV-3 ovarian = system: SK-OV-3 ovarian
MOLT-4 leukemia = system: MOLT-4 leukemia
SR leukemia = system: SR leukemia
A549 NSCLC = system: A549 NSCLC
SK-MEL-28 melanoma = system: SK-MEL-28 melanoma
SF-268 CNS = system: SF-268 CNS
PC-3 prostate = system: PC-3 prostate

SMILES | TGI (UACC-62 melanoma) [µM] | TGI (MDA-N) [µM] | TGI (BT-549 breast) [µM] | TGI (SK-MEL-5 melanoma) [µM] | TGI (UO-31 renal) [µM] | TGI (KM12 colon) [µM] | TGI (NCI/ADR-RES ovarian) [µM] | TGI (HL-60(TB) leukemia) [µM] | TGI (OVCAR-4 ovarian) [µM] | TGI (U251 CNS) [µM] | TGI (NCI-H226 lung) [µM] | TGI (NCI-H460 lung) [µM] | TGI (SK-OV-3 ovarian) [µM] | TGI (MOLT-4 leukemia) [µM] | TGI (SR leukemia) [µM] | TGI (A549 NSCLC) [µM] | TGI (SK-MEL-28 melanoma) [µM] | TGI (SF-268 CNS) [µM] | TGI (PC-3 prostate) [µM]
O=[N+]([O-])c1ccc(-n2nc3ccc4c(no[n+]4[O-])c3[n+]2[O-])c([N+](=O)[O-])c1 | 7.72 | 4.47 | 9.49 | 7.54 | 13.2 | 13.1 | 11 | 5.43 | 3.19 | 7.6 | 23.3 | 40.6 | 23 | 5.81 | > 21.4 | 31.4 | 6.47 | 13.8 | 20.7
O/N=C(/C(Cl)=C(Cl)Cl)C(Cl)Cl | 77.2 | 32.8 | 41.4 | 40.3 | 49 | 47.4 | 73 | 26.3 | 30.3 | 35.2 | > 100 | > 100 | 74.7 | 37.1 | 26.7 | > 100 | 30.2 | 36.3 | 33.9
Cc1cccc(NC(=O)O/N=C(\Cl)C(C)C)c1 | 29.6 | 25 | 12.2 | 32.9 | 30.3 | 36 | 38.4 | 4.27 | 29.4 | 43.2 | 33.5 | 33.2 | 31.7 | 5.63 | 4.4 | 40.9 | 26.7 | 38 | 30.9
Cc1c(O)c(OC2OC(CO)C(O)C(O)C2O)cc2c1C=C[C@@H]1[C@@]2(C)C(=O)C[C@]2(C)[C@@H]([C@@](C)(O)C(O)/C=C/C(C)(C)O)[C@H](O)C[C@@]12C (stereo partly drawn) | > 100 | > 100 | > 100 | > 100 | > 100 | > 100 | > 100 | > 100 | > 100 | > 100 | > 100 | > 100 | > 100 | > 100 | > 100 | > 100 | > 100 | > 100 | > 100
O=C(O)Cc1ccc(Nc2nc3ccccc3nc2C(=O)O)cc1 | > 100 | > 100 | > 100 | > 100 | > 100 | > 100 | > 100 | > 100 | > 100 | > 100 | > 100 | > 100 | > 100 | > 100 | > 100 | > 100 | > 100 | > 100 | > 100
COc1ccc(C[C@@H](C(=O)NCCNC(=O)C(CC(C)C)N(C)C(=O)[C@@H]2CCCN2C(=O)[C@H](C)O)N(C)C(=O)[C@@H]2CCCN2C(=O)[C@H](CC(C)C)NC(=O)C(C)NC(=O)OCc2ccccc2)cc1 (stereo partly drawn) (Cbz-[ξA]LP[NMeY](Me)-{Ethylenediamine-ξNMeL-Pro-Lac}) | > 100 | > 100 | > 100 | > 100 | > 100 | > 100 | > 100 | > 100 | > 100 | > 100 | > 100 | > 100 | > 100 | > 100 | > 100 | > 100 | > 100 | > 100 | > 100
CN(CCNC(=O)c1c[nH]c2c1ccc1ccccc12)CCNC(=O)c1c[nH]c2c1ccc1ccccc12 | 3.46 | 5.63 | 26.9 | 21.1 | 2.67 | 3.29 | 13.1 | 4.29 | 11.7 | 4.03 | 40.5 | 4.13 | 18.4 | 4.3 | 4.69 | 5.83 | 4.16 | 11.6 | 6.68
